Test [1] concerns mouse peritoneal macrophages. To be noted: very low doses; reference 22; cited from earlier work.
For test [2], the system named is cholesterol trafficking to the plasma membrane. As to the kind of experiment: Cholesterol oxidase assay (plasma membrane cholesterol). The test is classed as cell-based, mouse. As to the method: Shown is the mass (in μg/mg cell protein) of cholesterol (Chol, open bars), which is the cholesterol oxidase-inaccessible pool of intracellular cholesterol, and of cholestenone (CN, striped bars), which is the cholesterol oxidase-accessible pool of plasma membrane cholesterol.
Macrophages were fixed with 1% glutaraldehyde for 10 min and then incubated for 30 min at 37° C. with 2 U/ml Streptomyces cholesterol oxidase. Cellular lipids were extracted twice with 0.5 ml of hexane:isopropanol (3:2).
Cholesterol and.cholestenone mass in these extracts were determined by gas-liquid chromatography using β-sitosterol as an internal standard. The lipid-extracted cell monolayer was dissolved in 1 ml 1N NaOH and assayed for protein content using the method of Lowry et al. (50).

Test [3] has as its system cholesterol trafficking to the endoplasmic reticulum. As to the kind of experiment: Whole-cell cholesterol esterification assay (cholesterol trafficking to ER membranes). The test is classed as cell-based, mouse. As to the method: Shown is the mean±S.E.M (n=3) of [^3H]cholesteryl ester formed (in cpm/mg cell protein).
Macrophages were incubated for 5 h with DMEM, 0.2% BSA containing 50 μg/ml [^3H]cholesterol-labeled acetyl-LDL alone or containing the indicated compounds. Cellular lipids were extracted twice with 0.5 ml of hexane:isopropanol (3:2, v/v), and the cellular content of [^3H]cholesteryl ester was determined using thin-layer chromatography (49). The lipid-extracted cell monolayer was dissolved in 1 ml 1N NaOH and assayed for protein content using the method of Lowry et al. (50).

Test [4] has as its system ABCA1-mediated cholesterol efflux. The experiment in a line: 3H-cholesterol efflux to apoA-I from free cholesterol-loaded macrophages. The test is classed as cell-based, mouse. As to the method: Peritoneal macrophages from C57 mice were incubated for 5 h with 100 μg/ml ^3H-cholesterol-labeled acetyl-LDL in DMEM, 0.2% BSA, in the presence of 10 μg/ml 58035.
(§1) Acetyl-LDL (800 μg) was incubated with 10 μCi ^3H-cholesterol for 30 min at 37° C., followed by addition of 8 ml of DMEM, 0.2% BSA. The macrophages were incubated with this medium for 5 h, washed 3 times with PBS, and then incubated with DMEM, 0.2% BSA for 15 min at 37° C. After washing with PBS, the macrophages were incubated with DMEM, 0.2% BSA, containing either 15 μg/ml apoAI or 20 μg/ml HDL2. At the indicated time points, 100 μl of media was removed and centrifuged for 5 min at 14,000 rpm to pellet cellular debris. The radioactivity in this fraction of media was quantitated by liquid scintillation counting. After the last time point, the remainder of the media was removed, and the cells were dissolved in 0.5 ml of 0.1 N NaOH containing 0.5% sodium dodecylsulfate (5 h at room temperature). A 100 μl-aliquot of the cell lysate was counted, and the percent efflux was calculated as (media cpm)[…](cell +media cpm)×100. Total protein in the cell lysate was determined using the Bio-Rad DC protein assay kit. Note that there was no statistical difference in cellular cpm or protein between cholesteryl ester- and free cholesterol-loaded macrophages.

Test [5] has as its system unfolded protein response (UPR). The experiment in a line: Immunoblot analysis of UPR markers (CHOP, PERK, IRE1α, XBP-1) in macrophages.
Description: For detection of PERK, nuclei-free cell extracts were immunoprecipitated with anti-PERK antiserum and then immunoblotted, while for detection of ATF-4 and CHOP, immunoblots were performed on nuclear extracts. Lamin B, a nuclear protein, was used as the loading control.
Immunoprecipitation and immunoblot detection for IRE1α and PERK were conducted as described by Harding et al. (35). Immunoblot analyses of XBP-1, ATF4, and CHOP were carried out as described previously (36,38) with minor modifications. Briefly, cells were lysed in RIPA buffer to prepare whole-cell lysates or to prepare nuclei by centrifugation. The whole-cell lysates or nuclei were resuspended in 2×SDS-PAGE loading buffer and incubated at 95° C. for 10 min. Whole cell (100 μg) or nuclear lysates (20 μg) were electrophoresed on 4-20% gradient SDS-PAGE gels and electrotransferred to 0.22-μm nitrocellulose membrane using a Bio-Rad mini-transfer tank. After incubation with primary antibodies, the protein bands were detected with HRP-conjugated secondary antibodies (Bio-Rad) and ECL (Amersham Pharmacia Biotech). The membranes were reprobed with an anti-β-actin monoclonal antibody or an anti-lamin B serum to control for differences in loading.
Another test deals with ER calcium stores. As to the kind of experiment: Assay of ER calcium pools (Fura-2, thapsigargin release). The test is classed as cell-based, mouse. To be noted: 70 nM, acetyl-LDL + 58035, 2.5 h (FIG. 18B). As to the method:
Shown are representative tracings of the 340/380-nm Fura-2 fluorescence ratio in an individual macrophage from each treatment group before and after addition of 1 μM thapsigargin.
Untreated or cholesterol-loaded macrophages on 25-mm coverslip-containing microscopy dishes were loaded with 4 μM Fura-2 μM (Molecular Probes) and 0.08% Pluronic F-127 in Hank's buffered saline solution (HBSS) at room temperature for 30 min. The monolayers were then washed twice with HBSS, incubated with HBSS for an additional 30 min and mounted on the stage of an inverted Nikon diaphot microscope equipped with a 40× objective. Sulfinpyrazone (250 μM) was included in all solutions to prevent excretion of the Fura-2 by the macrophages. Fluorescence images (510-nm emission following alternate 340-nm and 380-nm excitation) were collected through a charge-coupled device camera (Photon Technology International), and the 340:380 ratio of individual cells in these images was calculated.
Cells exposed to U18666A alone or culture media with no additives served as further control groups. […] Thapsigargin treatment results in emptying of ER calcium stores into the cytosol, which was quantified by fluorescence microscopy, providing a measure of releasable ER calcium stores at the time of thapsigargin addition.

Test [6] has as its system ABCA1-mediated cholesterol efflux. The experiment in a line: 3H-cholesterol efflux to apoA-I from free cholesterol-loaded macrophages. The test is classed as cell-based, mouse. To be noted: 70 nM; macrophages incubated for a prolonged period with acetyl-LDL without ACAT inhibitor (FIG. 12C).
Test [7] deals with LDL receptor knockout mice. As to the kind of experiment: In vivo efficacy in LDL receptor knockout mouse model of atherosclerosis. The conditions noted are these: 0.75 mg/kg/d. As to the method:
Plasma was assayed for total cholesterol.
Asteriks denote statistically significant differences between drug and control groups (p<0.05 by the Student's t test).

The test system of a further test is ACAT enzyme. To be noted: reference 24; cited from earlier work.
The subject of test [8] is ABCA1-independent efflux to HDL2. As to the kind of experiment: 3H-cholesterol efflux to HDL2 from free cholesterol-loaded macrophages. The test is classed as cell-based, mouse. The conditions noted are these: 70 nM, FC-loaded macrophages (FIG. 12B). As to the method: as §1
The subject of test [9] is mouse peritoneal macrophages. As to the kind of experiment: Annexin V / propidium iodide cell death assay of macrophages.
Excerpt: Representative fluorescence images and quantitative cell death data from five fields of cells for each condition are shown, expressed as the percent of total cells that stained with annexin V or propidium iodide (mean±S.E.M.; n=5 fields of cells, where each field had ˜200 cells).
Representative fluorescence images and quantitative data are shown (mean±S.E.M.; n=5 fields of cells, where each field had ˜200 cells).
Representative fluorescence images are shown in FIG. 19A, and quantitative apoptosis data from five fields of cells for each condition are shown in FIG. 19B, expressed as the percent of total cells that stained with annexin V or propidium iodide (mean±S.E.M.; n=5 fields of cells, where each field had ˜200 cells).
Peritoneal macrophages from adult female C57BL/6 mice and all mutant mice used in this study were harvested three days after the intraperitoneal injection of 40/g of concanavalin A in 0.5 ml of PBS. The cells were incubated in Dulbecco's modified Eagle's medium (DMEM) supplemented with 10% fetal bovine serum (FBS) and 20% L-cell conditioned medium. The medium was replaced every 24 hours until the macrophages were confluent. On the day of the experiment, the cells were washed three times with warm PBS and incubated as indicated in the Description of Figures for FIGS. 15A-20E. Most importantly, FC-loading of wild type and mutant macrophages was effected by incubating the cells with 100 μg/ml acetyl-LDL in the presence of 10 μg/ml 58035, which inhibits ACAT-mediated cholesterol esterification (11). At the end of the incubation period, the macrophages were assayed for early-mid-stage apoptosis (i.e., phosphatidylserine externalization) by staining with Alexa-488-labeled annexin V and for late-stage apoptosis (i.e., increased membrane permeability) by staining with propidium iodide (PI), as previously described (11). Cells were immediately viewed with an Olympus IX-70 inverted fluorescence microscope, and 3-6 representative fields (˜1000 cells) for each condition were counted for the number of annexin-positive, PI-positive, and total cells.

Regarding `CCN(CC)CCO[C@H]1CC[C@@]2(C)C(=CC[C@@H]3[C@@H]2CC[C@]2(C)C(=O)CC[C@@H]32)C1` [U18666A, 3-β-[2-(diethylamino)ethoxy]androst-5-en-17-one], the “block of apoptosis in FC-loaded cultured macrophages” value in [1] was “almost completely”. Besides, the “reduction of cholesterol trafficking to the plasma membrane” value in test [2] (70 nM (data not shown)) is given as “about 10%”. Also, in test [2] (low dose (70 nM), cholesterol oxidase accessibility and cyclodextrin extractability (FIG. 15B)), the “accrual of cholesterol in the plasma membrane” value was “no effect”. Also, in [3] (70 nM (data not shown)), the “decrease of cholesterol trafficking to the endoplasmic reticulum” value is on record as “about 90%”. In addition, the “reduction of re-esterification of ingested cholesterol” value in test [3] (low dose (70 nM), 5 h, acetyl-LDL (FIG. 15A)) is 90%. Further, in test [4] (FC-loaded macrophages), the “concentrations at which efflux was gradually inhibited” value is “greater than 100 nM”. Besides, in [4] (FC-loaded macrophages (FIGS. 11A, 11B)), the “induction of cholesterol efflux to ApoA-1” value was “marked ability to induce cholesterol efflux to ApoA-1”. Moreover, the “concentration of peak cholesterol efflux to ApoA-1” value in test [4] (FC-loaded macrophages, 6 h apoA-I (FIG. 11A)) is listed as 70 nM. The “restoration of ABCA1-dependent efflux” value in test [4] (optimal low doses, FC-loaded macrophages (FIG. 12A)) is “restored ABCA1-dependent efflux”. Also, the “IRE1α activation and XBP-1 expression in FC-loaded macrophages” value in test [5] (low dose (70 nM) (FIG. 16D, lane 5)) is reported as “markedly attenuated both events”. For the same compound, the “CHOP induction in FC-loaded macrophages” value in test [5] (low dose (70 nM), 5 h (FIG. 16A, lane 5)) is on record as “attenuated CHOP induction”. Besides, the “PERK activation in FC-loaded macrophages” value in test [5] (low dose (70 nM), 5 h (FIG. 16B, lane 5)) was “blocked PERK activation”. In the test with ER calcium stores, the “FC-loading-induced depletion of ER calcium stores (smaller thapsigargin-induced rise)” value was “completely prevented”. Also, the “increase of cholesterol efflux to apoA-I” value in test [6] was “about 30%”. Further, the “plasma HDL cholesterol versus vehicle” value in test [7] (12 weeks (FIG. 14B)) is “similar”. In addition, the “atherosclerotic lesion area, proximal aorta” value in test [7] (12 weeks (FIG. 14C), p<0.05) was “marked reduction”. Besides, in test [7] (12 weeks (FIG. 14D), p<0.05), the “acellular area, proximal aorta” value is “marked reduction”. Moreover, the “lipid core area, proximal aorta” value in [7] (12 weeks (FIG. 14E), p<0.05) was “marked reduction”. The “plasma total cholesterol versus vehicle” value in [7] (12 weeks, cholesterol and saturated fat diet (FIG. 14A)) was “similar”. Also, the “direct inhibitory effect on the ACAT enzyme” value in the test on ACAT enzyme is given as “no direct inhibitory effect”. Also, the “ABCA1-independent efflux (to HDL2)” value in test [8] was “improved”. In [9] (data not shown), the staurosporine-induced macrophage apoptosis result was “failed to protect”. Also, in test [9] (low dose (70 nM), 10 h (FIGS. 19A, 19B)), the “FC-induced death of Perk−/− macrophages” value is “markedly protected”. Also, the FC-induced macrophage death entry in [9] (low dose (70 nM), acetyl-LDL + 58035, 8 h (FIG. 15C)) is recorded as “protected macrophages from the lethal effect of cholesterol loading”.

Values taken from patent US20040259853A1, “Methods for preventing acute clinical vascular events in a subject” (The Trustees of Columbia University, priority 2000, published 2004).
